Data: PMC11350809, “Targeting N-Acetylglucosaminidase in Staphylococcus aureus with Iminosugar Inhibitors” (Antibiotics, 2024)
Like-named read-outs stand apart in the source and are kept apart here.

What was measured:
[1] = biological target: naringinase (Nar); details: cited from earlier work
[2] = biological target: β-Galactosidase (from bovine liver); details: cited from earlier work
[3] = biological target: α-Galactosidase (from green coffee beans); details: cited from earlier work
[4] = biological target: β-Glucosidase (from almond); details: cited from earlier work
[5] = test system: S. aureus (ATCC 29213); assay: Minimal inhibitory concentration, broth microdilution; assay type: cell-based, Staphylococcus aureus; details: for MIC: Staphylococcus aureus, ATCC29213; for antibacterial activity against S. aureus ATCC 29213: in words
Description: (§1) The minimal inhibitory concentrations (MICs) were determined against the bacterial strains S. aureus (ATCC 29213) and E. coli (ATCC 25922), and the results are presented in Table S6.
(§2) Antimicrobial testing was carried out by the broth microdilution method in a 96-well plate format following the CLSI guidelines and European Committee for Antimicrobial Susceptibility Testing (EUCAST) recommendations. Bacterial suspension of a specific bacterial strain equivalent to 0.5 McFarland turbidity standard was diluted with cation-adjusted Mueller Hinton broth to obtain a final inoculum of 10^5 CFU/mL. Compounds dissolved in 20% DMSO and inoculum were mixed together and incubated for 20 h at 35 °C. After incubation, the minimal inhibitory concentration (MIC) values were determined by visual inspection as the lowest dilution of compounds showing no turbidity. The MICs were determined against S. aureus (ATCC 29213) and E. coli (ATCC 25922) bacterial strains. Tetracycline was used as a positive control on every assay plate, showing MICs of 0.5 µg/mL and 1 µg/mL for S. aureus and E. coli, respectively.

[6] = biological target: human recombinant β-glucocerebrosidase (GBA); details: cited from earlier work
[7] = test system: E. coli (ATCC 25922); assay: Minimal inhibitory concentration, broth microdilution (negative control strain); assay type: cell-based; details: Escherichia coli, ATCC25922
Description: as §1, §2

[8] = biological target: α-Glucosidase (from baker's yeast); details: cited from earlier work
[9] = biological target: β-galactocerebrosidase (GALC); details: cited from earlier work
[10] = pH 6.8, p-nitrophenyl-α-D-galactopyranoside, footnote *
[11] = pH 5.0, p-nitrophenyl-β-D-glucopyranoside, footnote *
[12] = broth microdilution, 20 h at 35 °C, read-out: MIC S. aureus ATCC29213
[13] = pH 5.2, footnote *, read-out: IC50 GBA pH 5.2
[14] = pH 7.0, footnote *, read-out: IC50 GBA pH 7.0
[15] = broth microdilution, 20 h at 35 °C, read-out: MIC E. coli ATCC25922
[16] = pH 7.2, p-nitrophenyl-α-D-glucopyranoside, footnote *
[17] = pH 6.8, p-nitrophenyl-a-d-galactopyranoside, footnote **
[18] = pH 5.0, p-nitrophenyl-b-d-glucopyranoside, footnote **
[19] = pH 5.2, footnote **, read-out: IC50 GBA pH 5.2
[20] = pH 7.0, footnote **, read-out: IC50 GBA pH 7.0
[21] = pH 7.2, p-nitrophenyl-a-d-glucopyranoside, footnote **
[22] = pH 6.8, p-nitrophenyl-α-D-galactopyranoside, footnote ***
[23] = pH 5.0, p-nitrophenyl-β-D-glucopyranoside, footnote ***
[24] = pH 5.2, footnote ***, read-out: IC50 GBA pH 5.2
[25] = pH 7.0, footnote ***, read-out: IC50 GBA pH 7.0
[26] = pH 7.2, p-nitrophenyl-α-D-glucopyranoside, footnote ***

Structure (SMILES)	IC50 ([1]; footnote *)	IC50 ([2]; footnote *)	IC50 [3, 10]	IC50 [4, 11]	MIC [5, 12]	antibacterial activity against S. aureus ATCC 29213 [5]	MIC [7, 15]	IC50 [8, 16]	IC50 ([9]; footnote *)	IC50 ([1]; footnote **)	IC50 ([2]; footnote **)	IC50 [3, 17]	IC50 [4, 18]	IC50 [6, 19]	IC50 [6, 20]	IC50 [8, 21]	IC50 ([9]; footnote **)	also measured
CCCCCCCCCCN(CCCCCCCCCC)C(=O)CN=C1OCC2C(O)C(O)C(O)CN12 (stereo not shown) [Compound 2]	0.5 ± 0.01 µM	0.9 ± 0.1 µM	> 100 µM	> 100 µM	125 µM	modest antibacterial activities	> 500 µM	> 100 µM	> 10 µM	–	–	–	–	–	–	–	–	IC50 [6, 13]: 0.01 ± 0.001 µM; IC50 [6, 14]: 0.002 ± 0.001 µM
CCCCCCCCCCCCNC(=N)N1CC(O)C(O)C(O)C1 (stereo not shown) [Compound 4]	–	–	–	–	62.5 µM	modest antibacterial activities	500 µM	–	–	37.2 ± 1.7 µM	0.7 ± 0.1 µM	> 100 µM	10.7 ± 0.3 µM	0.04 ± 0.01 µM	0.02 ± 0.001 µM	> 100 µM	> 10 µM	–
CCCCCCCCCCCCCCNC(=N)N1CC(O)C(O)C(O)C1 (stereo not shown) [Compound 5]	–	–	–	–	15 µM	modest antibacterial activities	125 µM	–	–	33.5 ± 1.7 µM	1.6 ± 0.2 µM	> 100 µM	2.8 ± 0.1 µM	0.04 ± 0.01 µM	0.02 ± 0.001 µM	> 100 µM	> 10 µM	–
CCCCCCCCCCN(CCCCCCCCCC)C(=O)CNC(=N)N1CC(O)C(O)C(O)C1 (stereo not shown) [Compound 6]	–	–	–	–	≤ 4 µM	modest antibacterial activities	500 µM	–	–	3.9 ± 0.6 µM	11.6 ± 4 µM	> 100 µM	> 100 µM	0.04 ± 0.01 µM	0.02 ± 0.001 µM	> 100 µM	> 10 µM	–
CCCCCCCCNC(=O)N1CC(O)C(O)C(O)C1 (stereo not shown) [Compound 7]	–	–	–	–	125 µM	modest antibacterial activities	> 500 µM	–	–	> 100 µM	19.6 ± 1.5 µM	> 100 µM	> 100 µM	> 10 µM	> 10 µM	> 100 µM	> 10 µM	–
CCCCCCCCCCCCNC(=O)N1CC(O)C(O)C(O)C1 (stereo not shown) [Compound 9]	–	–	–	–	250 µM	modest antibacterial activities	> 500 µM	–	–	> 100 µM	12.9 ± 1.9 µM	> 100 µM	> 100 µM	> 10 µM	> 10 µM	> 100 µM	> 10 µM	–
CCCCCCCCCCCCCCNC(=O)N1CC(O)C(O)C(O)C1 (stereo not shown) [Compound 10]	–	–	–	–	> 500 µM	–	> 500 µM	–	–	> 100 µM	34.2 ± 1.9 µM	> 100 µM	> 100 µM	> 10 µM	> 10 µM	> 100 µM	> 10 µM	–
CCCCOC1OCC(CNC(=N)N2CC(O)C(O)C(O)C2)O1 (stereo not shown) [Compound 11]	–	–	–	–	> 500 µM	–	> 500 µM	–	–	–	–	–	–	–	–	–	–	IC50 ([1]; footnote ***): > 30 µM; IC50 ([2]; footnote ***): > 30 µM; IC50 [3, 22]: > 30 µM; IC50 [4, 23]: 19.2 ± 0.5 µM; IC50 [6, 24]: > 30 µM; IC50 [6, 25]: 2.56 ± 0.233 µM; IC50 [8, 26]: > 30 µM; IC50 ([9]; footnote ***): > 30 µM
CCCCCCCCN=C1OCC2C(O)C(O)C(O)CN12 (stereo not shown) [Compound 12]	0.1 ± 0.01 µM	0.4 ± 0.01 µM	> 100 µM	5.7 ± 0.4 µM	–	–	–	> 100 µM	> 10 µM	–	–	–	–	–	–	–	–	IC50 [6, 13]: 0.1 ± 0.01 µM; IC50 [6, 14]: 0.02 ± 0.001 µM
CCCCCCCCCCN=C1OCC2C(O)C(O)C(O)CN12 (stereo not shown) [Compound 13]	0.01 ± 0.01 µM	0.1 ± 0.01 µM	> 100 µM	2.1 ± 0.1 µM	–	–	–	> 100 µM	> 10 µM	–	–	–	–	–	–	–	–	IC50 [6, 13]: 0.02 ± 0.001 µM; IC50 [6, 14]: 0.001 ± 0.001 µM
CCCCCCCCCCCCN=C1OCC2C(O)C(O)C(O)CN12 (stereo not shown) [Compound 14]	0.1 ± 0.01 µM	< 0.1 µM	> 100 µM	1.6 ± 0.1 µM	–	–	–	> 100 µM	> 10 µM	–	–	–	–	–	–	–	–	IC50 [6, 13]: 0.01 ± 0.001 µM; IC50 [6, 14]: 0.001 ± 0.001 µM
CCCCCCCCNC(=N)N1CC(O)C(O)C(O)C1 (stereo not shown) [Compound 15]	–	–	–	–	–	–	–	–	–	53 ± 2.2 µM	< 0.1 µM	> 100 µM	38.1 ± 1.5 µM	0.99 ± 0.09 µM	0.24 ± 0.02 µM	> 100 µM	> 10 µM	–
CCCCCCCCCCN(CCCCCCCCCC)C(=O)CNC(=O)N1CC(O)C(O)C(O)C1 (stereo not shown) [Compound 16]	–	–	–	–	–	–	–	–	–	> 100 µM	12.5 ± 2.9 µM	> 100 µM	> 100 µM	> 10 µM	> 10 µM	> 100 µM	> 10 µM	–
CCCCCCCCOC1OCC(CNC(=N)N2CC(O)C(O)C(O)C2)O1 (stereo not shown) [Compound 17]	–	–	–	–	–	–	–	–	–	–	–	–	–	–	–	–	–	IC50 ([1]; footnote ***): > 30 µM; IC50 ([2]; footnote ***): > 30 µM; IC50 [3, 22]: > 30 µM; IC50 [4, 23]: 14.6 ± 0.6 µM; IC50 [6, 24]: > 30 µM; IC50 [6, 25]: 0.03 ± 0.01 µM; IC50 [8, 26]: > 30 µM; IC50 ([9]; footnote ***): > 30 µM
CCCCCCCCCN1C[C@H](O)[C@@H](O)[C@H](O)[C@H]1CO [NN-DNJ, reference compound]	0.1 ± 0.01 µM	> 100 µM	> 100 µM	> 100 µM	–	–	–	> 100 µM	> 10 µM	0.2 ± 0.01 µM	> 100 µM	> 100 µM	> 100 µM	–	–	> 100 µM	> 10 µM	IC50 ([1]; footnote ***): 0.1 ± 0.01 µM; IC50 ([2]; footnote ***): > 30 µM; IC50 [3, 22]: > 30 µM; IC50 [4, 23]: > 30 µM; IC50 [8, 26]: > 30 µM; IC50 ([9]; footnote ***): > 30 µM
CN(C)[C@@H]1C(O)=C(C(N)=O)C(=O)[C@@]2(O)C(O)=C3C(=O)c4c(O)cccc4[C@@](C)(O)[C@H]3C[C@@H]12 [Tetracycline, reference compound]	–	–	–	–	–	–	–	–	–	–	–	–	–	–	–	–	–	MIC ([5]; positive control on every assay plate, read-out: MIC S. aureus): 0.5 µg/mL; MIC ([7]; positive control on every assay plate, read-out: MIC E. coli): 1 µg/mL
